Results reported in patent US20230147389A1, “Transdermal Drug Delivery System for Delivering a Drug to a Patient” (priority 2021, published 2023).
Like-named read-outs stand apart in the source and are kept apart here.

How the values were obtained:
[1] = pig
Description: Further, the rate of permeation may be determined using the Attenuated Total Reflection Fourier Transform Infrared Spectroscopy (ATR-FTIR), and multivariate modeling. […] The flux results may be obtained based on comprehensive in vitro permeation studies by using the pig abdominal skin samples, that may be normalized to reflect the equivalence of 0.10 cm skin thickness.
A proprietary chemometric modeling method may be used to perform quantitative analysis based on spectral data. In addition, the method may be used to determine the concentration of the active ingredient dissolved in the EthoGel formulation.
The skin permeation study may be conducted using a Bruker ATR-FTIR instrument (Model Alpha; Bruker Optics Ltd., MA, USA) equipped with a 2×2 mm diamond spectral window. Pig abdominal skin samples may be obtained from a local meat supplier. The skin samples may be treated by removing the fat and connecting tissues from the dermis side, followed by cutting them into 2×2 cm-size pieces and keeping them at freezing temperature for later use. Further, skin thickness may be measured before the experiment by allowing the skin sample to warm to room temperature and by using a Material Thickness Meter (Model No. PCE-CT 26; PCE Americas Inc, Jupiter, Fla., USA).
In a typical experiment, the skin sample may be put on the spectral window of the spectrometer with the dermis side facing the window. Further, about 1 g of the EthoGel formulation may be applied on the stratum corneum side of the skin sample, which may be covered by an applicator with an area of 3.5 cm^2 to minimize the loss of permeation enhancers (i.e., ethanol) through evaporation from the formulation. IR spectra may be taken at 15-60 min intervals and the experiment may be continued for up to 72 hours when needed. Further, the spectra may be used for calculating w/w % of the active ingredient (ibuprofen or diclofenac), ethanol, and glycerin on the dermis side of the skin. Chemometric modeling may be conducted using the software Unscrambler (CAMO Software AS, Oslo, Norway). The diffusion coefficients of the active ingredient, ethanol, and glycerin can be calculated using the following equation:
where D is the diffusion coefficient (cm2/H), L is the lag time (hour) and h is the skin thickness (cm).
The flux J (μg/cm2/H) is calculated using the following equation:
where D is the diffusion coefficient, C is the concentration (μg/mL) of the active ingredient dissolved in the EthoGel formulation and h is the thickness of the skin.

[2] = current marketed TD patch products; per 24 hours; cited from earlier work

flux achieved by EGATDDS [1] | flux ([1]; 1 w/w %) [μg/cm2/H] | flux ([1]; 4 w/w %) [μg/cm2/H] | Compound | amount of drug delivered in 24 hours [2] [mg]
5-324 μg/cm2/H | 54 | – | O=C(O)Cc1ccccc1Nc1c(Cl)cccc1Cl [diclofenac, Diclofenac] | –
25-1337 μg/cm2/H | – | 283 | CC(C)Cc1ccc(C(C)C(=O)O)cc1 (stereo not drawn) [ibuprofen, Ibuprofen] | –
– | – | – | CCCN(CCc1cccs1)[C@H]1CCc2c(O)cccc2C1 [ritigotine] | 1
– | – | – | CCN(C)C(=O)Oc1cccc([C@H](C)N(C)C)c1 [rivastigmine] | 4.5
